Measured values reported in PMC9862751, “Identifying Dopamine D3 Receptor Ligands through Virtual Screening and Exploring the Binding Modes of Hit Compounds” (Molecules, 2023).

Biological target: human D3R (Homo sapiens, UniProt P35462)
Assay: [3H]-spiperone filtration binding assay on membranes from CHO–hDRD3 cells
Conditions: for inhibition at 10 µM: read-out: Inhibition Rate at 10 µM
Description: CHO-K1 cells expressing human D3R (CHO–hDRD3; HD Euroscreen Fast, Brussels, Belgium) were homogenized in 4× v/w buffer (15 mM Tris, 2 mM MgCl2, 0.3 mM EDTA, 1 mM EGTA, pH = 7.4 at 25 °C) with a Dounce tissue grinder and centrifuged at 40,000× g at 4 °C for 25 min. The supernatant was removed, and the pellet was resuspended in 4× v/w buffer and recentrifuged. […] The preparations were then aliquoted and stored at −70 °C [11].
The aliquoted membranes were thawed and washed once in binding buffer (50 mM Tris HCl, 5 mM MgCl2, 5 mM KCl, 1 mM CaCl2, 120 mM NaCl, and 1mM EDTA). […] The incubations were carried out for 120 min at 25 °C in 250 µL in individual wells of a 96-well deep-well plate. […] Non-specific binding was determined in the presence of 10 mM haloperidol. After incubation, the samples were filtered over UniFilter GF/B^TM using PerkinElmer Harvester and washed with 4 × 1 mL ice-cold binding buffer. The plate was dried at 40 °C for 1 h and 40 µL MicroScint scintillation cocktail (PerkinElmer) was added to each well. […] Specific radioligand binding was defined as the difference between total binding and non-specific binding determined in the presence of excess haloperidol. Inhibition percentage (%) = (total binding counts − test compounds binding counts)/(total binding counts—non-specific binding counts) [11].

human D3R, sequence (P35462 whole entry): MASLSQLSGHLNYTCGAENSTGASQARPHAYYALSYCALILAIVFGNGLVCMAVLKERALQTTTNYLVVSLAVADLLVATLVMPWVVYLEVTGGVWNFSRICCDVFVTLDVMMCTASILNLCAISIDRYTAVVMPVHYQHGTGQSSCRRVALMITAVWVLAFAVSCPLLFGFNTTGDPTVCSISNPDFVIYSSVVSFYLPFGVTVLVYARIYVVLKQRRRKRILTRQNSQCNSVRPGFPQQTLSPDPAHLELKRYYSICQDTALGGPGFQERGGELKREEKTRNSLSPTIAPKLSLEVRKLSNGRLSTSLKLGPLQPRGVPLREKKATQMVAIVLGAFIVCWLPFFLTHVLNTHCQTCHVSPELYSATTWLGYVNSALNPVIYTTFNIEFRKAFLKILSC

| IC50 | inhibition at 10 µM | Inhibition Rate at 10 µM (10 µM test compound, displacement of [3H]-spiperone) | Compound |
| --- | --- | --- | --- |
| 1480 nM | 93.6% | – | Cc1nc(Nc2ccc(NC(=O)Nc3ccc4c(c3)OCCO4)cc2)cc(NC2CCCCC2)n1 [Compound D638-0102] |
| 970 nM | 96.9% | – | Cc1ccc(SCc2nc(-c3ccc(C(=O)Nc4ccc5c(c4)OCO5)cc3)oc2C)cc1 [Compound E776-0059] |
| 1490 nM | 94.8% | – | Cc1cc(N2CCC(C(=O)N[C@@H]3CCCc4ccccc43)CC2)n2nc(-c3ccccc3)cc2n1 [Compound L227-1012] |

The next lines start with the molecule.

| Compound | IC50 | inhibition at 10 µM | Inhibition Rate at 10 µM (10 µM test compound, displacement of [3H]-spiperone) |
| --- | --- | --- | --- |
| Cc1ccc(-c2c3c(=O)n(C)c(=O)n(C)c3c3n2C(C)(C)CO[C@H]3c2ccc(C)cc2O)cc1 [Compound D280-0447] | 1250 nM | 99.3% | – |
| Cc1ccc(CNC(=O)c2ccc3c(=O)n(-c4ccc(C)cc4)c(N4CCCC4)nc3c2)cc1 [Compound F072-0905] | 1410 nM | 99.5% | – |
| Cc1oc(-c2ccc(C(=O)NCc3ccccc3)cc2)nc1CN1CCc2ccccc21 [Compound G373-0280] | – | – | 74.8% |
